What was measured:
HsSultan B-cell lymphoma = HsSultan B-cell lymphoma metastatic model in SCID mice; type: in vivo; settings: for Activity: mean time to death: daily from two weeks after i.v. cell injection, vehicle 26 days
Description: (§1) Antitumor activity has been evaluated for the S(−) and the R(+)4-amino-thalidomide enantiomers as follows. For the HsS cell line, 2 million cells are injected into the tail vein of 8 week old, female, SCID mice. Treatment is initiated after two weeks and continued daily until the mice die or show hind limb paralysis. Results are expressed as mean time to death in treated versus control animals. For the Lewis lung model, 2.5×10(5) cells are injected intravenously into the tail vein of 6-8 week old, male, C57BL/6 mice and treatment is initiated on day three. The time period of treatment is usually 11-15 days in duration. After sacrifice by CO^2 asphyxiation, lungs (where tumors seed and grow) are removed, rinsed in water, patted dry, and weighed. Mean lung weights of age-matched, non-tumor bearing mice are subtracted from the weight of treated, tumor-bearing mice with results expressed as lung weight gain in treated versus control animals. Table 1 summarizes data from in vivo experiments in lung and plasma cell tumor metastatic tumor systems, comparing the antitumor activity of the three enantiomeric preparations of 4-amino thalidomide.

HS-Sultan cells = test: XTT proliferation assay with HS-Sultan cells; type: cell-based; settings: 72 hour treatment, FIG. 1
Description: The Roche Cell Proliferation Kit II (XTT) is an useful assay for screening the relative efficacy of small molecules. The assay quantitatively determines cellular proliferation in response to agonists and/or antagonists of proliferation. It is based on the cleavage of the yellow tetrazolium salt (XTT) by metabolically active/viable cells to form an orange formazan dye. The formation of the soluble dye allows direct quantification using a scanning mulitwell spectrophotometer. An increase in the number of living cells (resulting from proliferation) results in a greater production of formazan dye which corresponds to an increase in the absorbance value.
When evaluating analogs of thalidomide, or the like, we have employed HS-Sultan cells in an in vitro XTT assay. […] When the treatment/labeling period is complete, the plate is read on a spectrophotometric plate reader at a wavelength of 470 nm and a 650 nm reference wavelength. For individual experiments, the average absorbance values (with background subtracted) for each treatment are plotted against the concentration. A larger absorbance value corresponds to a greater amount of proliferation. A negative control (untreated cells) is used as a point of reference; an absorbance value less than the control reflects inhibition of proliferation. […]

Lewis lung carcinoma = Lewis lung carcinoma metastatic model in C57BL/6 mice; type: in vivo; settings: for Activity: weight gain of lung: 100 mg/kg/day, treatment from day three, vehicle 0.40 g
Description: as §1

[1] = tested on: VEGF induced neovascularization; test: Corneal micropocket assay, VEGF pellet; type: in vivo, C57BL/6J mice; settings: 50 mg/kg i.p. daily for six days, n=9 each, P<0.001, FIG. 2
Description: (§2) A corneal micropocket assay was performed as described in Kenyon, et al., A Model of Angiogenesis in the Mouse Cornea, Invest. Ophtalmol. & Vis. Sci., 37, 1625-1632 (1996), which is incorporated herein in its entirety. Pellets were used containing 80 ng of bFGF or human recombinat VEGF (R&D Systems, Minneapolis, Minn.) in C57BL/6J mice. […] Differences in VEGF induced neovascularization between S(−)-3APG and control were significant (n=9 each, P<0.001), as were differences between S(−)-3APG and thalidomide (n=9 each, P<0.01).

[2] = tested on: bFGF induced neovascularization; test: Corneal micropocket assay, bFGF pellet; type: in vivo, C57BL/6J mice; settings: 50 mg/kg i.p. daily for five days, n=9 each, P<0.0001, FIG. 2
Description: as §2

Structure (SMILES) | Activity: mean time to death (HsSultan B-cell lymphoma; 50 mg/kg/day) [days] | Activity: mean time to death (HsSultan B-cell lymphoma; 200 mg/kg/day) [days] | anti-cellular proliferation activity (XTT, treatment over control) (HS-Sultan cells) | Activity: weight gain of lung (Lewis lung carcinoma) [g] | difference in VEGF induced neovascularization versus control [1] | antitumor activity compared among the enantiomeric preparations of 4-amino thalidomide (HsSultan B-cell lymphoma; summary of Table 1) | difference in bFGF induced neovascularization versus control [2] | antitumor activity compared among the enantiomeric preparations of 4-amino thalidomide (Lewis lung carcinoma; summary of Table 1)
Nc1cccc2c1C(=O)N([C@@H]1CCC(=O)NC1=O)C2=O [R(+)-4-amino-thalidomide] | 37 | 31 | show anti-cellular proliferation activity | 0.42 | – | – | – | –
Nc1cccc2c1C(=O)N(C1CCC(=O)NC1=O)C2=O (stereo not drawn) [R, S, 4-amino-thalidomide] | 41 | 28 | – | 0.27 | – | – | – | –
Nc1cccc2c1C(=O)N([C@H]1CCC(=O)NC1=O)C2=O [S(−)-4-amino-thalidomide, S(−)-4-Amino-thalidomide] | 47 | 47 | show anti-cellular proliferation activity | 0.17 | significant | most active enantiomer | significant | most active enantiomer
